From patent US12448383B2, “Compounds and methods for treatment of viral infections” (priority 2022, dated 2025)
Like-named read-outs stand apart in the source and are kept apart here.

How the values were obtained:
[1] = Stability in pH2 buffered solution; format: physicochemical
Procedure: Example N: Stability in p112 and p117 Buffered Solutions
The aqueous stability of compounds over a time of 24 hours at 40° C. was assessed. Stability was determined in 50 mM phosphate buffered solutions at both pH2 and pH7, with 150 mM NaCl (to achieve isotonicity). 3-5 mg of solid compounds were added to 7 mL scintillation vials. Acetonitrile was added to each vial to produce a 1 mg/mL stock solution. Stock solutions were diluted to 50 μg/mL in either pH2 or pH7 phosphate buffer, to a volume of 1 mL. For each compound and pH condition, 50 μg/mL samples were prepped in duplicate. One sample was placed on the UPLC tray at 40° C. for analysis, and the second sample was placed in a 40° C. oven for storage. Sample preps for each compound were offset by 40 minutes to account for run time on UPLC.
Concentration timepoints were measured at 0, 3, 6, 9, and 12 hrs. After 24 hrs, samples in the 40° C. oven were removed and analyzed by UPLC.
In FIG. 2, % AN stands for % area normalized. That is, % AN is the area of the compound peak relative to the sum of areas of all the peaks in the UPLC chromatogram. For example, if there were two peaks, compound peak with an area of 9 and another peak with an area of 1, then the % AN of the compound peak would be 90%.

[2] = system: Respiratory syncytial virus recombinant with luciferase (RSV-Luc5) in HEp-2 cells; experiment: microbe, parasite or virus in culture; format: cell-based; conditions: human respiratory syncytial virus, HEp-2, 72 h, read-out: RSV Hep2 EC50
[3] = system: SARS Coronavirus 2 recombinant with NanoLuc (SARS-CoV2-NLuc) in A549-hACE2 cells; experiment: organism not typed; format: cell-based
[4] = system: Respiratory syncytial virus recombinant with luciferase (RSV-Luc5) in Normal Human Bronchial Epithelial (NHBE) cells; experiment: microbe, parasite or virus in culture; format: cell-based
[5] = CC50 MT4 cytotoxicity (Cell-Titer Glo); format: cell-based; conditions: human
Method in brief: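 Uninfected MT-4 and HEp-2 cells cultured 4-5 days at 37° C with 3-fold serially diluted compound (15 nM to 100,000 nM). Viability read by Cell-Titer Glo luminescence; untreated and 2 μM puromycin wells set 100% and 0%. CC50 from non-linear regression as concentration reducing viability by 50%.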

[6] = GI S9 stability - no PMSF; format: in vitro ADME; design: GIS9-HUMAN-NoPMSF T1/2: unit: min; conditions: human intestinal S9, PMSF-free; for half-life at 2 µM: pH 7.4, read-out: GIS9-HUMAN-NoPMSF T1/2
Method in brief: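 Compounds were incubated at 2 μM with PMSF-free intestinal S9 (1 mg/mL protein) in 100 mM PBS, pH 7.4, sampling at 6 time points over 120 min. Parent disappearance and formation of the nucleoside metabolite Reference Compound A were quantified by LC-MS (Q-Exactive) using analyte/internal standard peak area ratios.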

[7] = Plasma stability; format: in vitro ADME; design: unit not given here; conditions: 37° C., 2 μM substrate
Method in brief: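 Reaction mixture was sampled at 0.05, 0.5, 1, 2, 3 and 4 hr into quench solution containing internal standard, then centrifuged and diluted with water. Remaining analyte was measured by LC-MS on a Q-Exactive using a formic acid/acetonitrile gradient, with 5 ppm mass tolerance.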

[8] = system: Caco-2 cells (clone C2BBe1); experiment: CACO-2 permeability; format: in vitro ADME; design: unit not given here; conditions: for DM Caco2 A to B: apical to basolateral, donor pH 6.5, receiver pH 7.4; for DM Caco2 B to A: basolateral to apical
Method in brief: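 Caco-2 monolayers grown 21 days on collagen-coated transwells and checked for integrity by TEER. Donor buffer was HBSS/HEPES/glucose pH 6.5 with 200 μM BNPP; receiver was pH 7.4 with BSA. Compounds were dosed apically or basolaterally for A-to-B and B-to-A transport, with receiver sampling at 1 and 2 h, LC-MS/MS analysis and percent recovery.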

[9] = physchem
[10] = A549, read-out: EC50 SARS CoV2 NanoLuc A549 384
[11] = read-out: EC50 RSVFluc-NHBE 384 V2

| SMILES | CC50 [5] [nM] | STA Human Plasma 37 [7] | EC50 [3, 10] [nM] | EC50 [4, 11] [nM] | logD [9] | further results |
| --- | --- | --- | --- | --- | --- | --- |
| CC(C)C(=O)OC[C@H]1O[C@@](C#N)(c2ccc3c(N)ncnn23)[C@H](OC(=O)C(C)C)[C@@H]1OC(=O)C(C)C [2nd Ester Reference Compound] | – | – | – | – | – | Stability at pH2, 0 hr ([1]; 0 h, 50 µg/mL, pH 2): 100.0 % AN; Stability at pH2, 3 hr ([1]; 3 h, 50 µg/mL, pH 2): 100.0 % AN; Stability at pH2, 6 hr ([1]; 6 h, 50 µg/mL, pH 2): 100.0 % AN; Stability at pH2, 9 hr ([1]; 9 h, 50 µg/mL, pH 2): 98.3 % AN; Stability at pH2, 12 hr ([1]; 12 h, 50 µg/mL, pH 2): 97.7 % AN; Stability at pH2, 24 hr ([1]; 24 h, 50 µg/mL, pH 2): 96.2 % AN |
| CC(C)OC(=O)OC[C@H]1O[C@@](C#N)(c2ccc3c(NC(=O)C(C)C)ncnn23)[C@H](OC(=O)C(C)C)[C@@H]1OC(=O)C(C)C [Compound 75, (2R,3R,4R,5R)-2-cyano-2-(4-isobutyramidopyrrolo[2,1-f][1,2,4]triazin-7-yl)-5-(((isopropoxycarbonyl)oxy)methyl)tetrahydrofuran-3,4-diyl bis(2-methylpropanoate)] | > 50000 | 277.1 | – | – | – | EC50 [2]: 1030 nM; EC50 ([3]; 48 h, read-out: SARS-CoV2 EC50): 5060 nM; EC50 ([4]; 72 h, read-out: RSV NHBE EC50): 321 nM; half-life at 2 µM [6]: 0.884 min; pH 2 Stability 24 h % AN ([1]; pH2 phosphate buffer, 40° C., 24 h, Table N2): 0 % AN |
| CCCCCCCCCCCCCCCCCCOC(=O)OC[C@H]1O[C@@](C#N)(c2ccc3c(N)ncnn23)[C@H](O)[C@@H]1O [Compound 126, ((2R,3S,4R,5R)-5-(4-aminopyrrolo[2,1-f][1,2,4]triazin-7-yl)-5-cyano-3,4-dihydroxytetrahydrofuran-2-yl)methyl octadecyl carbonate] | 27700 | 79.1 | 1610 | 517 | > 5.7 | half-life at 2 µM [6]: 97.6 min; DM Caco2 A to B [8]: 0.01; DM Caco2 B to A [8]: 0.03 |
| CC(C)(C)OC(=O)C(C)(C)OC(=O)OC[C@H]1O[C@@](C#N)(c2ccc3c(N)ncnn23)[C@H](O)[C@@H]1O [Compound 138, tert-butyl 2-[[(2R,3S,4R,5R)-5-(4-aminopyrrolo[2,1-f][1,2,4]triazin-7-yl)-5-cyano-3,4-dihydroxy-tetrahydrofuran-2-yl]methoxycarbonyloxy]-2-methyl-propanoate] | > 50000 | – | 21200 | > 50000 | 2 | – |
| N#C[C@@]1(c2ccc3c(N)ncnn23)O[C@H](COC(=O)OC23CC(C(F)(F)F)(C2)C3)[C@@H](O)[C@H]1O [Compound 139, [(2R,3S,4R,5R)-5-(4-aminopyrrolo[2,1-f][1,2,4]triazin-7-yl)-5-cyano-3,4-dihydroxy-tetrahydrofuran-2-yl]methyl [3-(trifluoromethyl)-1-bicyclo[1.1.1]pentanyl]carbonate] | > 50000 | 150.07 | – | 1640 | 2.2 | half-life at 2 µM [6]: 1.37 min; DM Caco2 A to B [8]: 0.99; DM Caco2 B to A [8]: 12.98 |
| N#C[C@@]1(c2ccc3c(N)ncnn23)O[C@H](COC(=O)OCCCCCCC(=O)O)[C@@H](O)[C@H]1O [Compound 143, 7-(((((2R,3S,4R,5R)-5-(4-aminopyrrolo[2,1-f][1,2,4]triazin-7-yl)-5-cyano-3,4-dihydroxytetrahydrofuran-2-yl)methoxy)carbonyl)oxy)heptanoic acid] | > 50000 | 800.58 | 35400 | > 50000 | < 0.3 | GIS9-HUMAN-NoPMSF T1/2 [6]: 789 |
| C[C@@H](OC(=O)OC[C@H]1O[C@@](C#N)(c2ccc3c(N)ncnn23)[C@H](O)[C@@H]1O)[C@@H](C(=O)OCC(C)(C)C)N(C)C [Compound 147, neopentyl O-((((2R,3S,4R,5R)-5-(4-aminopyrrolo[2,1-f][1,2,4]triazin-7-yl)-5-cyano-3,4-dihydroxytetrahydrofuran-2-yl)methoxy)carbonyl)-N,N-dimethyl-L-threoninate] | > 50000 | – | 2850 | 2470 | 2.5 | – |
| C[C@@H](OC(=O)OC[C@H]1O[C@@](C#N)(c2ccc3c(N)ncnn23)[C@H](O)[C@@H]1O)[C@@H](C(=O)OCC1CCCC1)N(C)C [Compound 148, (2S,3R)-cyclopentylmethyl 3-(((((2R,3S,4R,5R)-5-(4-aminopyrrolo[2,1-f][1,2,4]triazin-7-yl)-5-cyano-3,4-dihydroxytetrahydrofuran-2yl)methoxy)carbonyl)oxy)-2-(dimethylamino)butanoate] | > 50000 | – | 2050 | 2100 | 2.7 | – |
| C[C@@H](OC(=O)OC[C@H]1O[C@@](C#N)(c2ccc3c(N)ncnn23)[C@H](O)[C@@H]1O)[C@@H](C(=O)OC1CCCC1)N(C)C [Compound 149, cyclopentyl O-((((2R,3S,4R,5R)-5-(4-aminopyrrolo[2,1-f][1,2,4]triazin-7-yl)-5-cyano-3,4-dihydroxytetrahydrofuran-2-yl)methoxy)carbonyl)-N,N-dimethyl-L-threoninate] | > 50000 | – | 2420 | 2550 | 2.2 | – |
| C[C@@H](OC(=O)OC[C@H]1O[C@@](C#N)(c2ccc3c(N)ncnn23)[C@H](O)[C@@H]1O)[C@@H](C(=O)OC1CCOCC1)N(C)C [Compound 150, tetrahydro-2H-pyran-4-yl O-((((2R,3S,4R,5R)-5-(4-aminopyrrolo[2,1-f][1,2,4]triazin-7-yl)-5-cyano-3,4-dihydroxytetrahydrofuran-2-yl)methoxy)carbonyl)-N,N-dimethyl-L-threoninate] | > 50000 | – | 2370 | 3080 | 1.3 | – |
| CC(C)OC(=O)[C@H](COC(=O)OC[C@H]1O[C@@](C#N)(c2ccc3c(N)ncnn23)[C@H](O)[C@@H]1O)N(C)C [Compound 151, isopropyl O-((((2R,3S,4R,5R)-5-(4-aminopyrrolo[2,1-f][1,2,4]triazin-7-yl)-5-cyano-3,4-dihydroxytetrahydrofuran-2-yl)methoxy)carbonyl)-N,N-dimethyl-L-serinate] | > 50000 | – | 2760 | 2890 | 1.3 | – |
| CN(C)[C@@H](COC(=O)OC[C@H]1O[C@@](C#N)(c2ccc3c(N)ncnn23)[C@H](O)[C@@H]1O)C(=O)OCC1CCCC1 [Compound 152, cyclopentylmethyl O-((((2R,3S,4R,5R)-5-(4-aminopyrrolo[2,1-f][1,2,4]triazin-7-yl)-5-cyano-3,4-dihydroxytetrahydrofuran-2-yl)methoxy)carbonyl)-N,N-dimethyl-L-serinate] | > 50000 | – | 1280 | 3630 | 2.2 | – |
| CN(C)[C@@H](COC(=O)OC[C@H]1O[C@@](C#N)(c2ccc3c(N)ncnn23)[C@H](O)[C@@H]1O)C(=O)OC1CCCC1 [Compound 153, cyclopentyl O-((((2R,3S,4R,5R)-5-(4-aminopyrrolo[2,1-f][1,2,4]triazin-7-yl)-5-cyano-3,4-dihydroxytetrahydrofuran-2-yl)methoxy)carbonyl)-N,N-dimethyl-L-serinate] | > 50000 | – | 2670 | 3240 | 1.7 | – |
